Laboratory results as given in the NIST ThermoML archive (doi:10.1021/acs.jced.8b01048).
Numbers after ± are expanded uncertainties.

Tests used:
[1] = xn = mol fraction of the nth substance listed; details: 100 kPa, Liquid, Vibrating tube method
[2] = 100 kPa, Liquid, Vibrating tube method

`C[S+](C)[O-]` [dimethyl sulfoxide] + O gave a mass density ([1]; 293.15 K, x1 = 0.998) of 1100.2 ± 1.1 kg/m3, a mass density ([1]; 303.15 K, x1 = 0.998) of 1090.2 ± 1.1 kg/m3 and a mass density ([1]; 313.15 K, x1 = 0.998) of 1080.4 ± 1 kg/m3. It also gave a mass density ([1]; 323.15 K, x1 = 0.998) of 1070.2 ± 1 kg/m3, a mass density ([1]; 333.15 K, x1 = 0.998) of 1060.3 ± 1 kg/m3 and a mass density ([1]; 343.15 K, x1 = 0.998) of 1050.2 ± 1 kg/m3. For the same compound, the mass density ([1]; 353.15 K, x1 = 0.998) was 1040.2 ± 1 kg/m3, the mass density ([1]; 363.15 K, x1 = 0.998) was 1029.9 ± 1 kg/m3 and the mass density ([1]; 373.15 K, x1 = 0.998) was 1019.8 ± 0.9 kg/m3.
Work on `C[S+](C)[O-]` [dimethyl sulfoxide] yielded a mass density ([2]; 293.15 K) of 1100.2 ± 1.1 kg/m3, a mass density ([2]; 303.15 K) of 1090.2 ± 1.1 kg/m3 and a mass density ([2]; 313.15 K) of 1080.4 ± 1 kg/m3. For the same compound, the mass density ([2]; 323.15 K) was 1070.2 ± 1 kg/m3, the mass density ([2]; 333.15 K) was 1060.3 ± 1 kg/m3 and the mass density ([2]; 343.15 K) was 1050.2 ± 1 kg/m3. The mass density ([2]; 353.15 K) was 1040.2 ± 1 kg/m3, the mass density ([2]; 363.15 K) was 1029.9 ± 1 kg/m3 and the mass density ([2]; 373.15 K) was 1019.8 ± 0.9 kg/m3.
For `CC(=O)[O-].CCn1cc[n+](C)c1` [1-ethyl-3-methylimidazolium acetate] + O, the mass density ([1]; 293.15 K, x2 = 0.018) was 1101.7 ± 0.5 kg/m3, the mass density ([1]; 303.15 K, x2 = 0.018) was 1095.6 ± 0.5 kg/m3 and the mass density ([1]; 313.15 K, x2 = 0.018) was 1089.6 ± 0.5 kg/m3. For the same compound, the mass density ([1]; 323.15 K, x2 = 0.018) was 1083.7 ± 0.5 kg/m3, the mass density ([1]; 333.15 K, x2 = 0.018) was 1077.7 ± 0.5 kg/m3 and the mass density ([1]; 343.15 K, x2 = 0.018) was 1071.8 ± 0.5 kg/m3. The mass density ([1]; 353.15 K, x2 = 0.018) was 1065.9 ± 0.5 kg/m3, the mass density ([1]; 363.15 K, x2 = 0.018) was 1060 ± 0.5 kg/m3 and the mass density ([1]; 373.15 K, x2 = 0.018) was 1054.2 ± 0.5 kg/m3.
Work on `C[S+](C)[O-]` [dimethyl sulfoxide] + CC(=O)[O-].CCn1cc[n+](C)c1 yielded a mass density ([1]; 293.15 K, x1 = 1) of 1100.2 ± 0.5 kg/m3, a mass density ([1]; 303.15 K, x1 = 1) of 1090.2 ± 0.5 kg/m3 and a mass density ([1]; 313.15 K, x1 = 1) of 1080.4 ± 0.5 kg/m3. It also gave a mass density ([1]; 323.15 K, x1 = 1) of 1070.2 ± 0.5 kg/m3, a mass density ([1]; 333.15 K, x1 = 1) of 1060.3 ± 0.5 kg/m3 and a mass density ([1]; 343.15 K, x1 = 1) of 1050.2 ± 0.5 kg/m3. For the same compound, the mass density ([1]; 353.15 K, x1 = 1) was 1040.2 ± 0.5 kg/m3, the mass density ([1]; 363.15 K, x1 = 1) was 1029.9 ± 0.5 kg/m3 and the mass density ([1]; 373.15 K, x1 = 1) was 1019.8 ± 0.5 kg/m3.
Compound `CC(=O)[O-].C[N+](C)(C)CCO` [choline acetate] + C[S+](C)[O-] has a mass density ([1]; 293.15 K, x2 = 0.899) of 1102.7 ± 0.5 kg/m3, a mass density ([1]; 303.15 K, x2 = 0.899) of 1093.9 ± 0.5 kg/m3 and a mass density ([1]; 313.15 K, x2 = 0.799) of 1086 ± 0.5 kg/m3. It also gave a mass density ([1]; 313.15 K, x2 = 0.899) of 1085.1 ± 0.5 kg/m3, a mass density ([1]; 323.15 K, x2 = 0.701) of 1079.6 ± 0.5 kg/m3 and a mass density ([1]; 323.15 K, x2 = 0.799) of 1077.9 ± 0.5 kg/m3. For the same compound, the mass density ([1]; 323.15 K, x2 = 0.899) was 1076.3 ± 0.5 kg/m3, the mass density ([1]; 333.15 K, x2 = 0.598) was 1073.6 ± 0.5 kg/m3 and the mass density ([1]; 333.15 K, x2 = 0.701) was 1072.3 ± 0.5 kg/m3. The mass density ([1]; 333.15 K, x2 = 0.799) was 1070 ± 0.5 kg/m3, the mass density ([1]; 333.15 K, x2 = 0.899) was 1067.4 ± 0.5 kg/m3 and the mass density ([1]; 343.15 K, x2 = 0.503) was 1067.3 ± 0.5 kg/m3. The mass density ([1]; 343.15 K, x2 = 0.598) was 1066.7 ± 0.5 kg/m3, the mass density ([1]; 343.15 K, x2 = 0.701) was 1065 ± 0.5 kg/m3 and the mass density ([1]; 343.15 K, x2 = 0.799) was 1061.8 ± 0.5 kg/m3. The mass density ([1]; 343.15 K, x2 = 0.899) was 1058.6 ± 0.5 kg/m3, the mass density ([1]; 353.15 K, x2 = 0.503) was 1060.8 ± 0.5 kg/m3 and the mass density ([1]; 353.15 K, x2 = 0.598) was 1059.8 ± 0.5 kg/m3. The mass density ([1]; 353.15 K, x2 = 0.701) was 1057.6 ± 0.5 kg/m3, the mass density ([1]; 353.15 K, x2 = 0.799) was 1053.8 ± 0.5 kg/m3 and the mass density ([1]; 353.15 K, x2 = 0.899) was 1049.8 ± 0.5 kg/m3. It also gave a mass density ([1]; 363.15 K, x2 = 0.503) of 1054.6 ± 0.5 kg/m3, a mass density ([1]; 363.15 K, x2 = 0.598) of 1053 ± 0.5 kg/m3 and a mass density ([1]; 363.15 K, x2 = 0.701) of 1050.4 ± 0.5 kg/m3. The mass density ([1]; 363.15 K, x2 = 0.799) was 1045.6 ± 0.5 kg/m3, the mass density ([1]; 363.15 K, x2 = 0.899) was 1040.9 ± 0.5 kg/m3 and the mass density ([1]; 373.15 K, x2 = 0.503) was 1048.4 ± 0.5 kg/m3. The mass density ([1]; 373.15 K, x2 = 0.598) was 1046.4 ± 0.5 kg/m3, the mass density ([1]; 373.15 K, x2 = 0.701) was 1043.3 ± 0.5 kg/m3 and the mass density ([1]; 373.15 K, x2 = 0.799) was 1037.6 ± 0.5 kg/m3. For the same compound, the mass density ([1]; 373.15 K, x2 = 0.899) was 1032.3 ± 0.5 kg/m3.
`CC(=O)[O-].CCn1cc[n+](C)c1` [1-ethyl-3-methylimidazolium acetate] showed a mass density ([2]; 293.15 K) of 1101.7 ± 0.5 kg/m3, a mass density ([2]; 303.15 K) of 1095.6 ± 0.5 kg/m3 and a mass density ([2]; 313.15 K) of 1089.6 ± 0.5 kg/m3. It also gave a mass density ([2]; 323.15 K) of 1083.7 ± 0.5 kg/m3, a mass density ([2]; 333.15 K) of 1077.7 ± 0.5 kg/m3 and a mass density ([2]; 343.15 K) of 1071.8 ± 0.5 kg/m3. The mass density ([2]; 353.15 K) was 1065.9 ± 0.5 kg/m3, the mass density ([2]; 363.15 K) was 1060 ± 0.5 kg/m3 and the mass density ([2]; 373.15 K) was 1054.2 ± 0.5 kg/m3.
